Measurements published in paper PMC8041284, “Tunable Methacrylamides for Covalent Ligand Directed Release Chemistry” (Journal of the American Chemical Society, 2021).
Where a SMILES comes first, the peptide text is derived from it. [ ]: non-standard residue; d: D form. The star is where a group is joined. Dip = N[C@H](C(=O)O)C(c1ccccc1)c1ccccc1; Cbz = O=C(OCc1ccccc1)*; CH2F = FC*

Target: BTK (Homo sapiens, UniProt Q06187)
Test: biochemical
Conditions: read-out: BTK inhibition (%)

Sequence of BTK (Q06187 402-655 limits assumed): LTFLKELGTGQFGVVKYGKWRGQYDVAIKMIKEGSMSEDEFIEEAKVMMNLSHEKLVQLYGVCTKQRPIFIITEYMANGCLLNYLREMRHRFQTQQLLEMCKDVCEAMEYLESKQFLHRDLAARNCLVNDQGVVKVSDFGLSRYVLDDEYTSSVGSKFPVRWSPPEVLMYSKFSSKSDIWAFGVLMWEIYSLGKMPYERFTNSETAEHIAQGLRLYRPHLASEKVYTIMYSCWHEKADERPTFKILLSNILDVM

Row | Structure (SMILES) | inhibition at 10 µM
1 | O=C(O)CNC(=O)C1C(=O)N(C2CCCCC2)C(=O)N(C2CCCCC2)C1=O [PCM-0215600] | 13.9%
2 | Cc1ccc(NC(=S)NNc2c([N+](=O)[O-])cc(C(F)(F)F)cc2[N+](=O)[O-])cc1Cl [PCM-0215660] | 90.3%

Same assay, conditions: read-out: BTK inhibition (%), 0.75 uM BTK, […] probe 3l, 15 min preincubation

Row | Structure (SMILES) | inhibition at 10 µM
3 | CCC(C)SSc1ncc[nH]1 (stereo not shown) [PCM-0215586] | 2.3%
4 | CN1CCN(Cc2ccc(NC(=O)Nc3ccc(Oc4ccnc(N)n4)cc3)cc2C(F)(F)F)CC1 [PCM-0215587] | 31%
5 | CC(C)Oc1ccc(-c2nc(-c3cccc4c3CC[C@@H]4NCCO)no2)cc1C#N [PCM-0215588] | -5.5%
6 | Cc1ccc(Nc2ncc3c(n2)N(C)C(=O)N(c2cc(NC(=O)c4cccc(C(F)(F)F)c4)ccc2C)C3)cn1 [PCM-0215589] | 36.6%
7 | CN1CCN(C(=O)/C=C/c2ccc([N+](=O)[O-])o2)CC1 [PCM-0215590] | 4.6%
8 | CC(C)[C@H](NC(=O)OCc1ccccc1)C(=O)N[C@@H](C)C(=O)N[C@@H](CC(=O)O)C(=O)CF [PCM-0215591] (Cbz-Val-Ala-Asp-CH2F) | -5.4%
9 | O=C(CNc1ccc2ccccc2c1)N/N=C/c1cc(Br)c(O)c(Br)c1O [PCM-0215592] | 47.9%
10 | O=c1c(-n2ccnn2)c[nH]n1-c1cc(N2CCOCC2)ncn1 [PCM-0215593] | -16.2%
11 | COc1ccc(S(=O)(=O)Nc2nc(-c3cccc([N+](=O)[O-])c3)cs2)cc1OC [PCM-0215595] | 7.7%
12 | NC1=NC(=O)/C(=C/c2ccc(O)cc2)S1 [PCM-0215596] | 17%
13 | O=C(O)c1ccc(CN2CCC(CN[C@@H]3C[C@H]3c3ccccc3)CC2)cc1 [PCM-0215597] | 0.8%
14 | CC(C)[C@H](NC(=O)c1ccc2ccccc2n1)C(=O)N[C@@H](CC(=O)O)C(=O)COc1c(F)cccc1F [PCM-0215598] | 7.7%
15 | CC1CC(=O)c2c(ccc3c2C(=O)c2cccc(O)c2C3=O)C1 (stereo not shown) [PCM-0215599] | -3.1%
16 | COC1CCC(N2C(=O)CNc3ncc(-c4ccc(C(C)(C)O)nc4)nc32)CC1 (stereo not shown) [PCM-0215601] | 15.9%
17 | OC(c1cc(-c2ccc(Cl)cc2)nc2ccccc12)C1CCCCN1 (stereo not shown) [PCM-0215603] | 19.3%
18 | CC(C)COc1ccc(CNC(=O)N(Cc2ccc(F)cc2)C2CCN(C)CC2)cc1 [PCM-0215604] | -3.9%
19 | N[C@@H](CSCCB(O)O)C(=O)O [PCM-0215605] | -5.4%
20 | Cc1[nH]nc(C(F)(F)F)c1Cc1sc2c(c1C(=O)N1C[C@](C)(O)CO1)c(=O)n(C)c(=O)n2C(C)C [PCM-0215606] | 6.9%
21 | COc1cc(OCc2cccc(-c3ccccc3)c2C)cc(OC)c1CN1CCCC[C@H]1C(=O)O [PCM-0215607] | -35.2%
22 | CN1CCN(c2ccc(-c3ccncc3-c3cc(F)c(O)c(F)c3)cc2)CC1 [PCM-0215608] | 6.2%
23 | Cn1ncc(Cl)c1-c1cc(C(=O)N[C@H](CN)Cc2ccc(F)c(F)c2)oc1Cl [PCM-0215609] | -7.6%
24 | COc1cccc(-c2cc(NCc3ccc4c(c3)OCO4)nc(N)n2)c1 [PCM-0215610] | -7.7%
25 | CC(C)(O)c1coc(S(=O)(=O)NC(=O)Nc2c3c(cc4c2CCC4)CCC3)c1 [PCM-0215611] | -0.9%
26 | CN1CCN(c2ccc(Nc3ncc4cc(C#N)c(=O)n(C5CCCC5)c4n3)cc2)CC1 [PCM-0215612] | 19.3%
27 | N#Cc1cccc(-c2c[nH]c3ncnc(N4CCOCC4)c23)c1 [PCM-0215613] | -8.3%

Row | Structure (SMILES) | inhibition at 10 µM
28 | CC(C)(O)CNc1ncc(-c2ccnc(Nc3ccnc(Cl)c3)n2)c(CC2CC2)n1 [PCM-0215614] | -14.5%
29 | Cc1cc(N2C[C@@H](C)N[C@@H](C)C2)ncc1-c1ccc(-c2nc3c(ccn3C)c(=O)[nH]2)cc1 [PCM-0215615] | 7.7%
30 | Cc1ccc2nc(CN(CCN(Cc3nc4ccc(C)cc4[nH]3)Cc3nc4ccc(C)cc4[nH]3)Cc3nc4ccc(C)cc4[nH]3)[nH]c2c1 [PCM-0215616] | 95.8%
31 | CNS(=O)(=O)CC1CCC(N(C)c2ncnc3[nH]ccc23)CC1 (stereo not shown) [PCM-0215617] | 9.7%
32 | O=C(Oc1cccc(F)c1OC(=O)c1cccc(O)c1)c1cccc(O)c1 [PCM-0215618] | -5.4%
33 | Cc1ccc(OCC(O)C(C)NC(C)C)c2c1CCC2 (stereo not shown) [PCM-0215619] | 13.9%
34 | C[C@@H](NC(=O)c1ncnc(N)c1Cl)c1ncc(C(=O)Nc2cc(C(F)(F)F)c(Cl)cn2)s1 [PCM-0215620] | -12.4%
35 | NCCCC[C@H](NC(=O)[C@@H](NC(=O)[C@H](Cc1c[nH]c2ccccc12)NC(=O)[C@H](CCCCN)NC(=O)[C@H](CCCCN)NC(=O)[C@H](Cc1c[nH]c2ccccc12)NC(=O)[C@H](Cc1c[nH]c2ccccc12)NC(=O)[C@H](CCCCN)NC(=O)[C@@H](N)CCCCN)C(c1ccccc1)c1ccccc1)C(N)=O [PCM-0215623] (H-KKWWKKW[Dip]K-NH2) | -11.1%
36 | C[C@H](Oc1ccc(S(C)(=O)=O)cc1C(=O)N1CCN(c2ncc(C(F)(F)F)cc2F)CC1)C(F)(F)F [PCM-0215624] | -20.1%
37 | CCn1cc(C(=O)O)c(=O)c2c(N)c(F)c(NC3CCCCC3)cc21 [PCM-0215625] | 5.4%
38 | CCn1c2ccccc2c2cc(CNCc3ccccc3OC)ccc21 [PCM-0215626] | -27.8%
39 | CCn1cc(-c2cccc(C(F)(F)F)c2)c2sc(C(N)=NC3CCS(=O)(=O)CC3)cc2c1=O [PCM-0215627] | 2.3%
40 | Nc1ncc(-c2ccnc(Nc3ccncc3)n2)c(CC2CC2)n1 [PCM-0215628] | 8.3%
41 | CCCCCCCC(=O)N[C@H](CN1CCCC1)[C@H](O)c1ccc2c(c1)OCCO2 [PCM-0215629] | -9.3%
42 | CN(C(=O)CNC(=O)/C=C/c1cccc(Cl)c1)C1CCS(=O)(=O)CC1 [PCM-0215630] | -13.9%
43 | CCCNC(=O)c1cn2ncnc(Nc3cc(C(=O)NC4CC4)ccc3C)c2c1C [PCM-0215631] | -13.8%
44 | CCCN=C1S/C(=C\c2ccc(OC[C@H](O)CO)c(Cl)c2)C(=O)N1c1ccccc1C [PCM-0215632] | 9%
45 | Cc1c[nH]c2nc(Nc3ccc(N4CCN(C)CC4)c(F)c3)nc(-c3cccc(CC#N)c3)c12 [PCM-0215633] | 92.4%
46 | CC(C)(CCCCCC(O)CCCCCC(C)(C)C(=O)O)C(=O)O [PCM-0215634] | 0.7%
47 | Cc1cc(Nc2ncc3c(n2)N(C)C(=O)N(c2cc(NC(=O)c4cccc(C(F)(F)F)c4)ccc2C)C3)n(C)n1 [PCM-0215636] | 104%
48 | CC(C)(O)CNc1nc(Nc2ccnc(C(F)(F)F)c2)nc(-c2cccc(C(F)(F)F)n2)n1 [PCM-0215637] | 19.3%
49 | CCC(=C(c1ccc(O)cc1)c1ccc(OCCN(C)C)cc1)c1ccccc1 [PCM-0215638] | -11.6%
50 | CCN(C)S(=O)(=O)Nc1ccc(F)c(C(=O)c2c[nH]c3ncc(-c4cnc(C5CC5)nc4)cc23)c1F [PCM-0215639] | 75.9%
51 | Clc1ccc(C(c2c[nH]c3ccccc23)c2c[nH]c3ccccc23)cc1 [PCM-0215640] | 71.7%
52 | O=c1[nH]c(=S)[nH]c2nc(-c3ccccc3)c(-c3ccccc3)nc12 [PCM-0215641] | 17%

Row | Structure (SMILES) | inhibition at 10 µM
53 | O=C(NCCCNc1nc(Nc2cccc(CN3CCOCC3)c2)ncc1C1CC1)C1CCC1 [PCM-0215642] | 21.6%
54 | CN1CCc2cc(Nc3ncc(C4CC4)c(NCCCNC(=O)C4CCC4)n3)ccc2C1 [PCM-0215643] | -8.5%
55 | N#CC(C#N)=NNc1ccc(OC(F)(F)F)cc1 [PCM-0215645] | 52.5%
56 | O=C(c1ccc(Cl)cc1)N(Cc1ccccc1)C1CCCCC1 [PCM-0215646] | 20.1%
57 | O=C(CCN1CCN(C(=O)OCc2cc(Cl)cc(Cl)c2)CC1)c1ccc2[nH]c(=O)oc2c1 [PCM-0215647] | -4.6%
58 | COc1cc(-c2cn(C)c(=O)c3cnccc23)cc(OC)c1CN(C)C [PCM-0215650] | -3.1%
59 | N#Cc1cc2cc(CN3CCC(Nc4ncnc5sc(CC(F)(F)F)cc45)CC3)ccc2[nH]1 [PCM-0215651] | 78%
60 | COCCOc1cnc2ccn([C@H](C)c3nnc4c(F)cc(-c5cnn(C)c5)cn34)c(=O)c2c1 [PCM-0215653] | 15.9%
61 | Nc1nc(NCCc2ccc(O)cc2)nc2nc(-c3ccco3)nn12 [PCM-0215654] | -4.6%
62 | COc1ccc(CCCOC(Cn2ccnc2)c2ccc(OC)cc2)cc1 (stereo not shown) [PCM-0215655] | -8.5%
63 | CN[C@@H]1[C@@H](O)[C@@H](O[C@@H]2[C@@H](O)[C@H](O[C@H]3OC(CN)=CC[C@H]3N)[C@@H](N)C[C@H]2N)OC[C@]1(C)O [PCM-0215656] | 28.9%
64 | CCOC(=O)c1c2c3c(cccc3[nH]c1=O)C(=O)c1ccccc1-2 [PCM-0215657] | -20.1%
65 | CCCCCCNC(=O)Nc1ccc(S(=O)(=O)Nc2ccc(CCNC[C@H](O)COc3ccc(O)cc3)cc2)cc1 [PCM-0215659] | 5.4%
66 | C=CC(=O)Nc1cccc(Oc2nc(Nc3ccc(N4CCN(C)CC4)cc3)nc3ccsc23)c1 [PCM-0215661] | 105%
67 | CCOC(=O)COc1ccc(/C=C2\SC(=S)NC2=O)cc1OC [PCM-0215662] | 84.2%
68 | CC(=O)c1ccc(NN=C(C(N)=O)C2=NC(C)(C)Cc3ccccc32)cc1 [PCM-0215663] | 13.1%
69 | Nc1ncnc2c1c(I)cn2[C@@H]1O[C@H](CO)[C@@H](O)[C@H]1O [PCM-0215664] | 23.9%
70 | O=C(Nc1ccc(Br)cc1)c1ccc(Br)c(S(=O)(=O)NCc2ccccc2)c1 [PCM-0215665] | 100%
71 | Cc1[nH]cnc1CN1CCc2c(c3ccccc3n2C)C1=O [PCM-0215666] | -3.4%
72 | Cc1ccccc1-c1cc(N2CCN(C)CC2)ncc1N(C)C(=O)C(C)(C)c1cc(C(F)(F)F)cc(C(F)(F)F)c1 [PCM-0215667] | 2.6%
73 | CN(C)c1ccc2c(c1)Sc1cc(N(C)C)ccc1N2 [PCM-0215668] | 72.6%
74 | COc1ccc(N2C(=O)/C(=C\c3ccc([N+](=O)[O-])s3)SC2=S)cc1 [PCM-0215671] | 22.4%
75 | C[C@H](NC(=O)C(=O)Nc1ccccc1C(C)(C)C)C(=O)N[C@@H](CC(=O)O)C(=O)COc1c(F)c(F)cc(F)c1F [PCM-0215672] | -17.9%
76 | O=C(c1ccc(Cl)cc1Cl)n1nnc2ccccc21 [PCM-0215673] | 17%
